According to ChEMBL document CHEMBL1153711, “Synthesis and antimycobacterial evaluation of novel 5,6-dimethoxy-1-oxo-2,5-dihydro-1H-2-indenyl-5,4-substituted phenyl methanone analogues” (Bioorg Med Chem Lett, 2009):
Values after ≈ are worked out from the molar mass of the structure shown.

tested on: Mycobacterium tuberculosis; test: Antimycobacterial activity against Mycobacterium tuberculosis H37Rv by agar dilution method; format: functional

Row | SMILES | MIC
1 | COc1cc2c(cc1OC)C(=O)C(C(=O)c1ccc(F)cc1)C2 (stereo not drawn) | 0.1 µM (≈ 0.0314 µg/mL)
2 | COc1cc2c(cc1OC)C(=O)C(C(=O)c1ccc(Br)cc1)C2 (stereo not drawn) | 4.94 µM (≈ 1.85 µg/mL)
3 | COc1cc2c(cc1OC)C(=O)C(C(=O)c1cccc([N+](=O)[O-])c1)C2 (stereo not drawn) | 3.46 µM (≈ 1.18 µg/mL)
4 | COc1cc2c(cc1OC)C(=O)C(C(=O)c1cc(OC)c(OC)c(OC)c1)C2 (stereo not drawn) | > 6.25 µM
5 | COc1ccc(C(=O)C2Cc3cc(OC)c(OC)cc3C2=O)cc1OC (stereo not drawn) | > 6.25 µM
6 | COc1cc2c(cc1OC)C(=O)C(C(=O)c1c(Cl)cccc1Cl)C2 (stereo not drawn) | 2.48 µM (≈ 0.906 µg/mL)
7 | NNC(=O)c1ccncc1 [ISONIAZID] | 0.75 µM (≈ 0.103 µg/mL)
8 | COc1cc2c(cc1OC)C(=O)C(C(=O)c1ccc(N(C)C)cc1)C2 (stereo not drawn) | 5.94 µM (≈ 2.02 µg/mL)
9 | COc1ccc(C(=O)C2Cc3cc(OC)c(OC)cc3C2=O)cc1 (stereo not drawn) | > 6.25 µM
10 | COc1cc2c(cc1OC)C(=O)C(C(=O)c1ccc(C#N)cc1)C2 (stereo not drawn) | > 6.25 µM
11 | COc1cc2c(cc1OC)C(=O)C(C(=O)c1ccccc1Cl)C2 (stereo not drawn) | 1.82 µM (≈ 0.602 µg/mL)
12 | COc1cc2c(cc1OC)C(=O)C(C(=O)c1ccc(Cl)cc1)C2 (stereo not drawn) | 1.52 µM (≈ 0.503 µg/mL)
13 | COc1cc2c(cc1OC)C(=O)C(C(=O)c1ccccc1)C2 (stereo not drawn) | 6.62 µM (≈ 1.96 µg/mL)
